# Test results reported in patent US10829501B2 (BRISTOL-MYERS SQUIBB COMPANY, priority 2016, dated 2020).
# Target: ROCK2 (Homo sapiens, UniProt O75116)
# Assay: ROCK2 kinase inhibition assay (LABCHIP 3000 Reader, FITC peptide substrate);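 further: rho kinase reaction read by separating phosphorylated from unphosphorylated peptide on chip, with inhibition of kinase activity computed per concentration across a dose-response series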
# ROCK2, sequence (O75116 whole entry, species assumed): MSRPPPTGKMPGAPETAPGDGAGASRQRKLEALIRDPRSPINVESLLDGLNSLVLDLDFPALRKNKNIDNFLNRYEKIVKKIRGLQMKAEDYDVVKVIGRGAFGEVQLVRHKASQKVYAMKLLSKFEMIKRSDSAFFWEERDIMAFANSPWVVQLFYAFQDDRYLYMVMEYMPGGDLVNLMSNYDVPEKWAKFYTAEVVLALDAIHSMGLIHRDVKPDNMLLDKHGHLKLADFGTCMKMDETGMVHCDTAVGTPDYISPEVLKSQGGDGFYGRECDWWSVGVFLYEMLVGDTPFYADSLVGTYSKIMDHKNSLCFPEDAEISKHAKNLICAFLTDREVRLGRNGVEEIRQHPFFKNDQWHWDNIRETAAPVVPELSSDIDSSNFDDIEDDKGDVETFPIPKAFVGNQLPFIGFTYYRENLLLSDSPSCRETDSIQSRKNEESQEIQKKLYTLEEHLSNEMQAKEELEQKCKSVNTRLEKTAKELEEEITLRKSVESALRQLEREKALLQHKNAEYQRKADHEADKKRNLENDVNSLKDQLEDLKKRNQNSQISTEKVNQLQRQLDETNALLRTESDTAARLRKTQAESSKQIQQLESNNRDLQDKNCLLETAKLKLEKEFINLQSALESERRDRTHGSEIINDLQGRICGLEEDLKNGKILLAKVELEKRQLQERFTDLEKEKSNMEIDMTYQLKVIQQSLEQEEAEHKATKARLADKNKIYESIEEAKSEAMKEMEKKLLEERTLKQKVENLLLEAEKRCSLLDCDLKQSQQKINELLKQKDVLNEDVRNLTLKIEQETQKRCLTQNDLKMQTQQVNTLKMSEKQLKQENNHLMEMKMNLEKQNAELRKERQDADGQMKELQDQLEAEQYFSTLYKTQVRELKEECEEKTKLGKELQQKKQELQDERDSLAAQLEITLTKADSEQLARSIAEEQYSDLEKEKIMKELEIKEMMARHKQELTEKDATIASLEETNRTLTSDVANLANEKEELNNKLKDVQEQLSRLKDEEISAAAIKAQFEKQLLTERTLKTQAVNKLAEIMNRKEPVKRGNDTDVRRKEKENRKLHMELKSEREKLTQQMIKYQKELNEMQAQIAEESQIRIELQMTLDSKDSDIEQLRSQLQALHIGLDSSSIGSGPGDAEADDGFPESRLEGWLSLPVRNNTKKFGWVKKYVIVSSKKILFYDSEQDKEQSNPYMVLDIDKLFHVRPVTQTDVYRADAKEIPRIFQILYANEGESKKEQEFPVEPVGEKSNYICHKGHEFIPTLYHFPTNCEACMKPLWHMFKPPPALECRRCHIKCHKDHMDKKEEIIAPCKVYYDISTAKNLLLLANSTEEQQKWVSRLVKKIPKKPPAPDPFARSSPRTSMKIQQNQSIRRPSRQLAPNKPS
row,IC50 [nM],Compound
1,250 to 2500,"COc1cccc(C(N)=O)c1OC1CC2(CC(NC(=O)c3cnn4cc(OCC(C)(C)O)ccc34)C2)C1 (stereo not shown) [Example 209, N-(6-(2-carbamoyl-6-methoxyphenoxy)spiro[3.3]heptan-2-yl)-6-(2-hydroxy-2-methylpropoxy)pyrazolo[1,5-a]pyridine-3-carboxamide]"
2,5 to 50,"COc1ccc(C(N)=O)c(OC2CC3(CC(NC(=O)c4cnn5cc(OCC(C)(C)O)ccc45)C3)C2)c1 (stereo not shown) [Example 210, N-(6-(2-carbamoyl-5-methoxyphenoxy)spiro[3.3]heptan-2-yl)-6-(2-hydroxy-2-methylpropoxy)pyrazolo[1,5-a]pyridine-3-carboxamide]"
3,< 5,"COc1ccc(C(N)=O)c(OC2CC3(CC(NC(=O)c4cnn5c(C6CC6)c(OCC(C)(C)O)ccc45)C3)C2)c1 (stereo not shown) [Example 211, N-(6-(2-carbamoyl-5-methoxyphenoxy)spiro[3.3]heptan-2-yl)-7-cyclopropyl-6-(2-hydroxy-2-methylpropoxy)pyrazolo[1,5-a]pyridine-3-carboxamide]"
4,250 to 2500,"COc1ccc(OC2CC3(CC(NC(=O)c4cnn5cc(OCC(C)(C)O)ccc45)C3)C2)c(C(N)=O)c1 (stereo not shown) [Example 212, N-(6-(2-carbamoyl-4-methoxyphenoxy)spiro[3.3]heptan-2-yl)-6-(2-hydroxy-2-methylpropoxy)pyrazolo[1,5-a]pyridine-3-carboxamide]"
5,5 to 50,"COc1ccc(OC2CC3(CC(NC(=O)c4cnn5c(C6CC6)c(OCC(C)(C)O)ccc45)C3)C2)c(C(N)=O)c1 (stereo not shown) [Example 213, N-(6-(2-carbamoyl-4-methoxyphenoxy)spiro[3.3]heptan-2-yl)-7-cyclopropyl-6-(2-hydroxy-2-methylpropoxy)pyrazolo[1,5-a]pyridine-3-carboxamide]"
6,250 to 2500,"Cc1cccc(C(N)=O)c1OC1CC2(CC(NC(=O)c3cnn4c(C5CC5)c(OCC(C)(C)O)ccc34)C2)C1 (stereo not shown) [Example 214, N-(6-(2-carbamoyl-6-methylphenoxy)spiro[3.3]heptan-2-yl)-7-cyclopropyl-6-(2-hydroxy-2-methylpropoxy)pyrazolo[1,5-a]pyridine-3-carboxamide]"
7,5 to 50,"Cc1ccc(C(N)=O)c(OC2CC3(CC(NC(=O)c4cnn5cc(OCC(C)(C)O)ccc45)C3)C2)c1 (stereo not shown) [Example 215, N-(6-(2-carbamoyl-5-methylphenoxy)spiro[3.3]heptan-2-yl)-6-(2-hydroxy-2-methylpropoxy)pyrazolo[1,5-a]pyridine-3-carboxamide]"
8,5 to 50,"Cc1ccc(OC2CC3(CC(NC(=O)c4cnn5c(C6CC6)c(OCC(C)(C)O)ccc45)C3)C2)c(C(N)=O)c1 (stereo not shown) [Example 216, N-(6-(2-carbamoyl-4-methylphenoxy)spiro[3.3]heptan-2-yl)-7-cyclopropyl-6-(2-hydroxy-2-methylpropoxy)pyrazolo[1,5-a]pyridine-3-carboxamide]"
9,< 5,"Cc1ccc(C(N)=O)c(OC2CC3(CC(NC(=O)c4cnn5c(C6CC6)c(OCC(C)(C)O)ccc45)C3)C2)c1 (stereo not shown) [Example 217, N-(6-(2-carbamoyl-5-methylphenoxy)spiro[3.3]heptan-2-yl)-7-cyclopropyl-6-(2-hydroxy-2-methylpropoxy)pyrazolo[1,5-a]pyridine-3-carboxamide]"
10,250 to 2500,"Cc1ccc(OC2CC3(CC(NC(=O)c4cnn5cc(OCC(C)(C)O)ccc45)C3)C2)c(C(N)=O)c1 (stereo not shown) [Example 218, N-(6-(2-carbamoyl-4-methylphenoxy)spiro[3.3]heptan-2-yl)-6-(2-hydroxy-2-methylpropoxy)pyrazolo[1,5-a]pyridine-3-carboxamide]"
11,5 to 50,"CC(C)(O)COc1ccc2c(C(=O)NC3CC4(C3)CC(Oc3cc(OC(F)F)ccc3C(N)=O)C4)cnn2c1 (stereo not shown) [Example 219, N-(6-(2-carbamoyl-5-(difluoromethoxy)phenoxy)spiro[3.3]heptan-2-yl)-6-(2-hydroxy-2-methylpropoxy)pyrazolo[1,5-a]pyridine-3-carboxamide]"
12,5 to 50,"CC(C)(O)COc1ccc2c(C(=O)NC3CC4(C3)CC(Oc3cc(Cl)ccc3C(N)=O)C4)cnn2c1 (stereo not shown) [Example 220, N-(6-(2-carbamoyl-5-chlorophenoxy)spiro[3.3]heptan-2-yl)-6-(2-hydroxy-2-methylpropoxy)pyrazolo[1,5-a]pyridine-3-carboxamide]"
13,50 to 250,CC(C)(O)COc1ccc2c(C(=O)NC3CC4(C3)CC(Oc3cc(-n5ccnc5)ccc3C(N)=O)C4)cnn2c1 (stereo not shown) [Example 221]
14,5 to 50,"CC(C)(O)COc1ccc2c(C(=O)NC3CC4(C3)CC(Oc3cc(-c5ncccn5)ccc3C(N)=O)C4)cnn2c1 (stereo not shown) [Example 222, N-(6-(2-carbamoyl-5-(pyrimidin-2-yl)phenoxy)spiro[3.3]heptan-2-yl)-6-(2-hydroxy-2-methylpropoxy)pyrazolo[1,5-a]pyridine-3-carboxamide]"
15,5 to 50,"CC(C)(O)COc1ccc2c(C(=O)NC3CC4(C3)CC(Oc3cc(-n5cccn5)ccc3C(N)=O)C4)cnn2c1 (stereo not shown) [Example 223, N-(6-(2-carbamoyl-5-(1H-pyrazol-1-yl)phenoxy)spiro[3.3]heptan-2-yl)-6-(2-hydroxy-2-methylpropoxy)pyrazolo[1,5-a]pyridine-3-carboxamide]"
16,5 to 50,"CN1CCN(c2ccc(C(N)=O)c(OC3CC4(CC(NC(=O)c5cnn6cc(OCC(C)(C)O)ccc56)C4)C3)c2)CC1 (stereo not shown) [Example 224, N-(6-(2-carbamoyl-5-(4-methylpiperazin-1-yl)phenoxy)spiro[3.3]heptan-2-yl)-6-(2-hydroxy-2-methylpropoxy)pyrazolo[1,5-a]pyridine-3-carboxamide]"
17,5 to 50,"CC(C)(O)COc1ccc2c(C(=O)NC3CC4(C3)CC(Oc3cc(-c5ccncc5)ccc3C(N)=O)C4)cnn2c1 (stereo not shown) [Example 225, N-(6-(2-carbamoyl-5-(pyridin-4-yl)phenoxy)spiro[3.3]heptan-2-yl)-6-(2-hydroxy-2-methylpropoxy)pyrazolo[1,5-a]pyridine-3-carboxamide]"
18,50 to 250,"CC(C)(O)COc1ccc2c(C(=O)NC3CC4(C3)CC(Oc3cc(C5CNC5)ccc3C(N)=O)C4)cnn2c1 (stereo not shown) [Example 226, N-(6-(5-(azetidin-3-yl)-2-carbamoylphenoxy)spiro[3.3]heptan-2-yl)-6-(2-hydroxy-2-methylpropoxy)pyrazolo[1,5-a]pyridine-3-carboxamide]"
19,5 to 50,"CC(C)(O)COc1ccc2c(C(=O)NC3CC4(C3)CC(Oc3cc(N5CCCC5)ccc3C(N)=O)C4)cnn2c1 (stereo not shown) [Example 227, N-(6-(2-carbamoyl-5-(pyrrolidin-1-yl)phenoxy)spiro[3.3]heptan-2-yl)-6-(2-hydroxy-2-methylpropoxy)pyrazolo[1,5-a]pyridine-3-carboxamide]"
20,50 to 250,"CC(C)(O)COc1ccc2c(C(=O)NC3CC4(C3)CC(Oc3cc(-c5ccccc5C(F)(F)F)ccc3C(N)=O)C4)cnn2c1 (stereo not shown) [Example 228, N-(6-((4-carbamoyl-2′-(trifluoromethyl)-[1,1′-biphenyl]-3-yl)oxy)spiro[3.3]heptan-2-yl)-6-(2-hydroxy-2-methylpropoxy)pyrazolo[1,5-a]pyridine-3-carboxamide]"
21,5 to 50,"CC(C)(O)COc1ccc2c(C(=O)NC3CC4(C3)CC(Oc3cc(-c5ccccc5F)ccc3C(N)=O)C4)cnn2c1 (stereo not shown) [Example 229, N-(6-((4-carbamoyl-2′-fluoro-[1,1′-biphenyl]-3-yl)oxy)spiro[3.3]heptan-2-yl)-6-(2-hydroxy-2-methylpropoxy)pyrazolo[1,5-a]pyridine-3-carboxamide]"
22,50 to 250,"CC(C)(O)COc1ccc2c(C(=O)NC3CC4(C3)CC(Oc3cc(N5CCOCC5)ccc3C(N)=O)C4)cnn2c1 (stereo not shown) [Example 230, N-(6-(2-carbamoyl-5-morpholinophenoxy)spiro[3.3]heptan-2-yl)-6-(2-hydroxy-2-methylpropoxy)pyrazolo[1,5-a]pyridine-3-carboxamide]"
23,< 5,"CC(C)(O)COc1ccc2c(C(=O)NC3CC4(C3)CC(Oc3cc(-c5cccc(F)n5)ccc3C(N)=O)C4)cnn2c1 (stereo not shown) [Example 231, N-(6-(2-carbamoyl-5-(6-fluoropyridin-2-yl)phenoxy)spiro[3.3]heptan-2-yl)-6-(2-hydroxy-2-methylpropoxy)pyrazolo[1,5-a]pyridine-3-carboxamide]"
24,5 to 50,"COC(=O)c1cncc(-c2ccc(C(N)=O)c(OC3CC4(CC(NC(=O)c5cnn6cc(OCC(C)(C)O)ccc56)C4)C3)c2)c1 (stereo not shown) [Example 232, methyl 5-(4-carbamoyl-3-((6-(6-(2-hydroxy-2-methylpropoxy)pyrazolo[1,5-a]pyridine-3-carboxamido)spiro[3.3]heptan-2-yl)oxy)phenyl)nicotinate]"
25,5 to 50,"COCCOC(=O)Nc1ccc(-c2ccc(C(N)=O)c(OC3CC4(CC(NC(=O)c5cnn6cc(OCC(C)(C)O)ccc56)C4)C3)c2)cn1 (stereo not shown) [Example 233, 2-methoxyethyl (5-(4-carbamoyl-3-((6-(6-(2-hydroxy-2-methylpropoxy)pyrazolo[1,5-a]pyridine-3-carboxamido)spiro[3.3]heptan-2-yl)oxy)phenyl)pyridin-2-yl)carbamate]"
26,50 to 250,"CC(C)(O)COc1ccc2c(C(=O)NC3CC4(C3)CC(Oc3cc(-c5ccc(C(C)(C)O)nc5)ccc3C(N)=O)C4)cnn2c1 (stereo not shown) [Example 234, N-(6-(2-carbamoyl-5-(6-(2-hydroxypropan-2-yl)pyridin-3-yl)phenoxy)spiro[3.3]heptan-2-yl)-6-(2-hydroxy-2-methylpropoxy)pyrazolo[1,5-a]pyridine-3-carboxamide]"
27,5 to 50,"COc1cccc(-c2ccc(C(N)=O)c(OC3CC4(CC(NC(=O)c5cnn6cc(OCC(C)(C)O)ccc56)C4)C3)c2)n1 (stereo not shown) [Example 235, N-(6-(2-carbamoyl-5-(6-methoxypyridin-2-yl)phenoxy)spiro[3.3]heptan-2-yl)-6-(2-hydroxy-2-methylpropoxy)pyrazolo[1,5-a]pyridine-3-carboxamide]"
28,5 to 50,"CC(C)(O)COc1ccc2c(C(=O)NC3CC4(C3)CC(Oc3cc(-c5cccc(N)n5)ccc3C(N)=O)C4)cnn2c1 (stereo not shown) [Example 236, N-(6-(5-(6-aminopyridin-2-yl)-2-carbamoylphenoxy)spiro[3.3]heptan-2-yl)-6-(2-hydroxy-2-methylpropoxy)pyrazolo[1,5-a]pyridine-3-carboxamide]"
